From US20040044006A1, “Methods of use of quinolone compounds against pneumococcal and haemophilus bacteria” (priority 1999, published 2004)
Converted amounts (≈) assume the structure as drawn. Where two headings read alike, the source gives them in different places.

Key:
[1] = tested on: pneumococci (5 quinolone susceptible and 1 resistant strains); experiment: Post-antibiotic effect (PAE) testing; assay type: cell-based, Streptococcus pneumoniae
Procedure: The post-antibiotic effect (PAE) (Craig, et al., V. Lorian (ed.) Antibiotics in Laboratory Medicine, Williams and Wilkins, Baltimore, pages 296-399, 1996) was determined by the viable plate count method, using Mueller-Hinton broth (MHB) supplemented with 5% lysed horse blood when testing pneumococci. […] Additionally, the one quinolone resistant strain was exposed at quinolone concentrations 5×MIC. Tubes containing 5 ml broth with antibiotic were inoculated with approximately 5×10^6 cfu/ml. Growth controls with inoculum but no antibiotic were included with each experiment. Tubes were placed in a shaking water bath at 35° C. for 1 h. At the end of the exposure period, cultures were diluted 1:1000 to remove antibiotic.
Viability counts were determined before exposure and immediately after dilution (0 h), and then every 2 h until tube turbidity reached a #1 McFarland standard. Inocula were prepared by suspending growth from an overnight blood agar plate in broth. The broth was incubated at 35° C. for 2-4 h in a shaking water bath until turbidity matched a #1 McFarland standard, and checked for viability by plate counts (Spangler, et al., Antimicrob. Agents Chemother. 41:2173-9176, 1997; Spangler, et al., Antimicrob. Agents Chemother. 42:1253-1255, 1998).
The PAE was defined as PAE=T-C; T=time required for viability counts of an antibiotic-exposed culture to increase by 1 log10 above counts immediately after dilution; C=corresponding time for growth control. For each experiment, viability counts (log10 cfu/ml) were plotted against time, and results expressed as the mean of two separate assays±S D (Craig, et al., V. Lorian (ed), Antibiotics in Laboratory Medicine, Williams and Wilkins, Baltimore, pages 296-329, 1996).

[2] = tested on: quinolone-resistant Haemophilus influenzae strains; experiment: Microdilution MIC determination in HTM for quinolone-resistant Haemophilus influenzae strains; assay type: cell-based; settings: 9 quinolone-resistant Haemophilus influenzae strains
Procedure: Inocula were prepared from chocolate agar plates incubated for a full 24 hours by the direct colony suspension method as follows: In a tube of Mueller-Hinton broth (Difco), an organism suspension was made to a density of a 0.5 McFarland standard (1×10^8 CFU/ml). The latter inoculum was diluted in sterile saline such that final organisms suspensions in trays yielded colony counts of 3-8×10^5 CFU/ml. Frozen microdilution trays were obtained from MicroMedia Systems, Inc. (Cleveland, Ohio, USA). Each tray contained all antimicrobials prepared in freshly made HTM. Wells were inoculated with 100 μl suspensions and incubated in ambient air at 35° C. for 20-24 hours. The lowest drug concentration showing no growth was read as the MIC. Standard quality control strains, including H. influenzae ATCC 49766, H. influenzae ATCC 49247, Staphylococcus aureus ATCC 29213 and Escherichia coli ATCC 25922 were included with each run.

[3] = tested on: quinolone susceptible pneumococci (ciprofloxacin MICs ≦4.0 μg/ml); experiment: Agar dilution MICs of 207 quinolone susceptible pneumococcal strains; assay type: cell-based, Streptococcus pneumoniae; settings: Streptococcus pneumoniae, agar dilution; for MIC90: read-out: MIC90; for MIC: read-out: MIC range
Procedure: All susceptible, and some intermediate and resistant strains, were recent U.S. isolates. The remainder of intermediate and resistant strains were isolated in South Africa, Spain, France, Central and Eastern Europe, and Korea. […] Additionally these strains were tested for mutations in parC, gyrA, parE, and gyrB (Pan, et al., Antimicrob. Agents Chemother. 40:2321-2326, 1996) and for efflux mechanism (Brenwald, et al., Antimicrob. Agents Chemother. 42:2032-2035, 1998). For time-kill studies, 4 penicillin susceptible, 4 intermediate and 4 resistant strains (2 quinolone resistant) were tested, while for PAE studies 5 quinolone susceptible and 1 resistant strains were studied.
(§1) Agar dilution methodology was performed on 234 strains as described previously (M. R. Jacobs, Clin. Infect. Dis. 15:119-127, 1992; Jacobs, et al., Rev. Med. Microbiol. 6:77-93, 1995), using Mueller-Hinton agar (BBL Microbiology Systems, Cockeysville, Md.) supplemented with 5% sheep blood. Broth MICs for 12 strains tested by time-kill and 6 tested by PAE were performed according to NCCLS recommendations (Methods for Dilution Antimicrobial Susceptibility Tests for Bacteria that Grow Aerobically, 3rd Edition, NCCLS, Villanova, Pa.) using cation-adjusted Mueller-Hinton broth with 5% lysed defibrinated horse blood. Standard quality control strains, including Streptococcus pneumoniae ATCC 49619, were included in each run of agar and broth dilution MICs.

[4] = tested on: pneumococcal strains; experiment: Microbroth dilution MICs of strains tested by time-kill and PAE; assay type: cell-based; settings: Streptococcus pneumoniae, read-out: Microdilution MIC
Procedure: as §1

Question: With `N[C@@H]1[C@H]2CN(c3nc4c(cc3F)c(=O)c(C(=O)O)cn4-c3ccc(F)cc3F)C[C@@H]12` [Trovafloxacin, trovafloxacin] as the compound, how does the PAE ([1]; 5×MIC, quinolone resistant strain) read?
Answer: 1.3 h

Question: And the PAE ([1]; 10×MIC for 1 h, range over 5 quinolone susceptible strains)?
Answer: 0.3 to 3.0 h

Question: What about the MIC50 [2] of the same compound?
Answer: 1 µg/mL (≈ 2.4 µM)

Question: And the “MIC Range” value [2]?
Answer: 0.25 to 8.0 µg/mL

Question: What about the MIC50 ([3]; Penicillin I strains) of the same compound?
Answer: 0.125 µg/mL (≈ 0.3 µM)

Question: What about the MIC90 ([3]; Penicillin I strains) of the same compound?
Answer: 0.25 µg/mL (≈ 0.6 µM)

Question: What about the MIC ([3]; Penicillin I strains) of the same compound?
Answer: 0.016 to 1 µg/mL (≈ 0.0384 to 2.4 µM)

Question: What about the MIC50 ([3]; Penicillin R strains) of the same compound?
Answer: 0.125 µg/mL (≈ 0.3 µM)

Question: And the MIC90 ([3]; Penicillin R strains)?
Answer: 0.25 µg/mL (≈ 0.6 µM)

Question: And the MIC ([3]; Penicillin R strains)?
Answer: 0.03 to 0.25 µg/mL (≈ 0.0721 to 0.6 µM)

Question: What about the MIC50 ([3]; Penicillin S strains) of the same compound?
Answer: 0.125 µg/mL (≈ 0.3 µM)

Question: And the MIC90 ([3]; Penicillin S strains)?
Answer: 0.25 µg/mL (≈ 0.6 µM)

Question: And the MIC ([3]; Penicillin S strains)?
Answer: 0.03 to 0.5 µg/mL (≈ 0.0721 to 1.2 µM)

Question: What about the MIC90 ([3]; all 207 strains (64 penicillin susceptible, 68 intermediate, 75 resistant)) of the same compound?
Answer: 0.25 µg/mL (≈ 0.6 µM)

Question: And the MIC ([4]; strain 1 (S) penicillin susceptible)?
Answer: 0.06 µg/mL (≈ 0.144 µM)

Question: And the MIC ([4]; strain 2 (S) penicillin susceptible)?
Answer: 0.06 µg/mL (≈ 0.144 µM)

Question: And the MIC ([4]; strain 3 (S) penicillin susceptible, quinolone-resistant)?
Answer: 8 µg/mL (≈ 19.2 µM)

Question: And the MIC ([4]; strain 4 (S) penicillin susceptible, quinolone-resistant)?
Answer: 4 µg/mL (≈ 9.61 µM)

Question: And the MIC ([4]; strain 5 (I) penicillin intermediate)?
Answer: 0.06 µg/mL (≈ 0.144 µM)

Question: What about the MIC ([4]; strain 6 (I) penicillin intermediate) of the same compound?
Answer: 0.06 µg/mL (≈ 0.144 µM)

Question: And the MIC ([4]; strain 7 (I) penicillin intermediate)?
Answer: 0.06 µg/mL (≈ 0.144 µM)

Question: And the MIC ([4]; strain 8 (I) penicillin intermediate)?
Answer: 0.125 µg/mL (≈ 0.3 µM)

Question: What about the MIC ([4]; strain 9 (R) penicillin resistant) of the same compound?
Answer: 0.125 µg/mL (≈ 0.3 µM)

Question: And the MIC ([4]; strain 10 (I))?
Answer: 0.06 µg/mL (≈ 0.144 µM)

Question: And the MIC ([4]; strain 11 (R) penicillin resistant)?
Answer: 0.06 µg/mL (≈ 0.144 µM)

Question: And the MIC ([4]; strain 12 (R) penicillin resistant)?
Answer: 0.125 µg/mL (≈ 0.3 µM)
